In BigSolDB 2.1:

CO[C@@]1(NC(=O)CSCC#N)C(=O)N2C(C(=O)[O-])=C(CSc3nnnn3C)CS[C@@H]21.[Na+]
solubility (mole fraction)
Conditions	in cyclohexane	in ethanol	in ethyl acetate	in isopropanol	in n-butanol	in n-butyl acetate	in n-hexane	in n-pentanol	in n-propanol
278.15 K	1.31e-06	0.000471	5.31e-05	6.74e-05	4.93e-05	3.86e-05	1.6e-06	3.1e-05	6.12e-05
283.15 K	1.75e-06	0.000508	6.03e-05	7.58e-05	5.69e-05	4.39e-05	2.1e-06	3.94e-05	7.02e-05
288.15 K	2.1e-06	0.000542	6.94e-05	8.93e-05	6.42e-05	5.19e-05	2.59e-06	4.82e-05	8.12e-05
293.15 K	2.5e-06	0.000599	8.61e-05	0.000117	8.26e-05	6.35e-05	2.98e-06	5.84e-05	0.000105
298.15 K	3.1e-06	0.000685	0.000105	0.00014	9.89e-05	7.49e-05	3.5e-06	6.75e-05	0.000125
303.15 K	3.6e-06	0.000818	0.000137	0.00017	0.000124	8.96e-05	4.1e-06	8e-05	0.000153
308.15 K	4.62e-06	0.00105	0.000168	0.00021	0.000152	0.000109	4.92e-06	9.75e-05	0.000191
313.15 K	5.69e-06	0.00128	0.000221	0.000286	0.000196	0.000124	6e-06	0.000113	0.000244
